We go through five compounds from publication PMC3390344, “Antibacterial Activity and Mechanism of a Scorpion Venom Peptide Derivative In Vitro and In Vivo” (PLoS ONE, 2012).

In brackets after ≈: the same amount, converted by molar mass. Where two headings read alike, the source gives them in different places.

What all share (format): cell-based
Experiment [1] deals with E. coli AB94012. Put plainly: Growth inhibitory assay (growth curves). Particulars: at a concentration of 6.25 µg/mL; Figure 2C. The protocol: Figure 2 Gowth inhibitory activities of Kn2-7. (A) Growth curves of S. aureus AB94004 treated with Kn2-7, BmKn2 or antibiotics. (B) Growth curves of MRSA P1386 treated with Kn2-7, BmKn2 or antibiotics. (C) Growth curves of E. coli AB94012 treated with Kn2-7, BmKn2 or antibiotics.
The time growth curves of S. aureus and MRSA treated with BmKn2 or its derivatives were determined based on measurements taken at 630 nm at each time point. Different concentrations of peptide were added to the tested strains, which were cultured in 96-well plates using the same method as was used for determining the MIC.

In experiment [2] the test system is E. coli AB94012. Put plainly: Enzyme release assay (catalase). Particulars: E. coli AB94012, 37°C; 0.9% saline negative control; Figure 4D. The protocol:
(§1) Figure 4 Secondary structure and enzyme release assay of Kn2-7. (A) and (B) Secondary structure analysis of the Kn2-7 and BmKn2 peptides. (A) Circular dichroism spectra of 0.1 mg/mL of Kn2-7 in water, 30% TFE/H2O or 70% TFE/H2O. (B) Circular dichroism spectra of 0.1 mg/mL of BmKn2 in water, 30% TFE/H2O or 70% TFE/H2O. (C) and (D) Enzyme release assay. (C) S. aureus AB94004 treated with Kn2-7 or BmKn2 was harvested, and the catalase activities of the supernatants were measured; 0.9% saline was used as the negative control, and ampicillin sodium was used as the antibiotic control. (D) E. coli AB94012 treated with Kn2-7 or BmKn2 was harvested, and the catalase activities in the supernatants were measured; 0.9% saline was used as the negative control, and kanamycin was used as the antibiotic control.
(§2) Bacterial suspensions and serial-diluted peptides were mixed at a ratio of 4∶1 in different tubes with a final volume of 2 ml. The mixtures were then incubated at 37°C with continuous shaking. At each time point, 200 µl of the treated bacterial suspension was transferred to sterilized tubes. After centrifugation, the supernatants were transferred to a sterilized 1.5-ml tube, and catalase activity was measured with a Catalase Assay Kit (Beyotime, Jiangsu, China) using the method for measuring peroxidase activity.

In experiment [3] the test system is methicillin-resistant coagulase-negative Staphylococcus (MRCNS) P1369. Put plainly: microbe, parasite or virus in culture. As to conditions: Staphylococcus. The protocol:
(§3) The MIC was determined via a microdilution assay in 96-well microtiter plates according to the broth microdilution guideline of Clinical and Laboratory Standards Institute (CLSI).

In experiment [4] the test system is penicillin-resistant S. epidermidis (PRSE) P1389. Put plainly: microbe, parasite or virus in culture. The protocol: (§4) Clinical isolates were obtained from the 302nd military hospital of Beijing, China, including penicillin-resistant S. aureus (PRSA) P1383, penicillin-resistant S. epidermidis (PRSE) P1389, methicillin-resistant S. aureus (MRSA) P1381, P1386 and P1374, methicillin-resistant coagulase-negative Staphylococcus (MRCNS) P1369, and penicillin-sensitive S. epidermidis (PSSE) P1111.
as §3

The test system of experiment [5] is methicillin-resistant S. aureus (MRSA) P1374. Put plainly: microbe, parasite or virus in culture. The protocol: as §4, §3
The test system of experiment [6] is penicillin-resistant S. aureus (PRSA) P1383. The experiment can be described thus: microbe, parasite or virus in culture. The protocol: as §4, §3
Experiment [7] has as its system methicillin-resistant S. aureus (MRSA) P1381. The experiment can be described thus: microbe, parasite or virus in culture. The protocol: as §4, §3
Experiment [8] has as its system methicillin-resistant S. aureus (MRSA) P1386. The experiment can be described thus: microbe, parasite or virus in culture. The protocol: as §4, §3
Experiment [9] has as its system penicillin-sensitive S. epidermidis (PSSE) P1111. Put plainly: microbe, parasite or virus in culture. The protocol: as §4, §3
For another experiment, the system named is S. aureus AB94004. Put plainly: Enzyme release assay (catalase). As to conditions: S. aureus AB94004, 37°C; 0.9% saline negative control; Figure 4C. The protocol: as §1, §2
The mark [10] stands for this setting: Staphylococcus epidermidis, read-out: MIC.

In the case of `NC[C@H]1O[C@H](O[C@H]2[C@H](O)[C@@H](O[C@H]3O[C@H](CO)[C@@H](O)[C@H](N)[C@H]3O)[C@H](N)C[C@@H]2N)[C@H](O)[C@@H](O)[C@@H]1O` [kanamycin, reference compound], the “Growth inhibition of E. coli AB94012 (growth curve)” value with E. coli AB94012 [1] is “inhibited the growth of E. coli AB94012”. The “Catalase activity of the supernatant over time” value in the experiment on E. coli AB94012 [2] is reported as “increasing catalase activity over time”.

On to `CN[C@H](CC(C)C)C(=O)N[C@H]1C(=O)N[C@@H](CC(N)=O)C(=O)N[C@H]2C(=O)N[C@H]3C(=O)N[C@H](C(=O)N[C@H](C(=O)O)c4cc(O)cc(O)c4-c4cc3ccc4O)[C@H](O)c3ccc(c(Cl)c3)Oc3cc2cc(c3O[C@@H]2O[C@H](CO)[C@@H](O)[C@H](O)[C@H]2O[C@H]2C[C@](C)(N)[C@H](O)[C@H](C)O2)Oc2ccc(cc2Cl)[C@H]1O` [Vancomycin], for which the MIC in experiment [3] amounted to 6.25 µg/mL (≈ 4.31 µM); in experiment [4] (Staphylococcus epidermidis), 6.25 µg/mL (≈ 4.31 µM); in [5] (Staphylococcus aureus, MRSA), 6.25 µg/mL (≈ 4.31 µM); in [6] (Staphylococcus aureus) it was 6.25 µg/mL (≈ 4.31 µM); in experiment [7] (Staphylococcus aureus, MRSA), 3.13 µg/mL (≈ 2.16 µM); in [8] (Staphylococcus aureus, MRSA) it was 3.13 µg/mL (≈ 2.16 µM). In experiment [9] (setting [10]), the MIC was found to be 3.13 µg/mL (≈ 2.16 µM).

For the compound Penicillin, the MIC in [4] (P1389, penicillin resistant (PRSE) clinical isolate, repeated at least three times) is 10000 µg/mL; in experiment [5] (P1374, methicillin resistant (MRSA) clinical isolate, repeated at least three times), 5000 µg/mL; in experiment [6] (P1383, penicillin resistant (PRSA) clinical isolate, repeated at least three times) it was 10000 µg/mL; in [7] (P1381, methicillin resistant (MRSA) clinical isolate, repeated at least three times) it was 5000 µg/mL; in [8] (P1386, methicillin resistant (MRSA) clinical isolate, repeated at least three times), 10000 µg/mL; in experiment [9] (P1111, penicillin sensitive (PSSE) clinical isolate, repeated at least three times), 25 µg/mL.

In the case of `CC1(C)S[C@@H]2[C@H](NC(=O)[C@H](N)c3ccccc3)C(=O)N2[C@H]1C(=O)O` [ampicillin, reference compound], the “Catalase activity of the supernatant over time” value in the experiment on S. aureus AB94004 is given as “increasing catalase activity over time”.

For `CO/N=C(\C(=O)N[C@@H]1C(=O)N2C(C(=O)O)=C(COC(C)=O)CS[C@H]12)c1csc(N)n1` [Cefotaxime], the MIC amounted to 400 µg/mL (≈ 878 µM) in experiment [3]; 3.13 µg/mL (≈ 6.87 µM) in [4] (Staphylococcus epidermidis); 400 µg/mL (≈ 878 µM) in experiment [5] (Staphylococcus aureus, MRSA); 6.25 µg/mL (≈ 13.7 µM) in experiment [6] (Staphylococcus aureus); 400 µg/mL (≈ 878 µM) in [7] (Staphylococcus aureus, MRSA); 100 µg/mL (≈ 220 µM) in experiment [8] (Staphylococcus aureus, MRSA). The MIC in [9] (setting [10]) turned out to be 6.25 µg/mL (≈ 13.7 µM).
